Measured values from patent US9695155B2, “Herbicidal substituted pyrimidinyloxy benzene compounds” (E. I. DU PONT DE NEMOURS AND COMPANY, priority 2013, dated 2017).

How the values were obtained:
barnyardgrass [1] = experiment: Test A preemergence; format: in vivo, Echinochloa crus-galli
Outline: (§1)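 Visual 0–100 rating (100 = complete control) taken about 10 d post-treatment relative to untreated checks. Preemergence: directed soil spray on sown loam/sand pots. Postemergence: seedlings 2–10 cm, 1–2 leaf. Non-phytotoxic solvent formulation with surfactant.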

large (Lg) crabgrass [2] = experiment: Test A preemergence; format: in vivo, Digitaria sanguinalis
Outline: as §1

giant foxtail [3] = experiment: Test A preemergence; format: in vivo, Setaria faberii
Outline: as §1

morningglory [4] = experiment: Test A preemergence; format: in vivo, Ipomoea spp.
Outline: as §1

pigweed [5] = experiment: Test A preemergence; format: in vivo, Amaranthus retroflexus
Outline: as §1

velvetleaf [6] = experiment: Test A preemergence; format: in vivo, Abutilon theophrasti
Outline: as §1

wheat [7] = experiment: Test A preemergence; format: in vivo, Triticum aestivum
Outline: as §1

corn [8] = experiment: Test A preemergence; format: in vivo, Zea mays
Outline: as §1

barnyardgrass [9] = experiment: Test A postemergence; format: in vivo, Echinochloa crus-galli
Outline: as §1

large (Lg) crabgrass [10] = experiment: Test A postemergence; format: in vivo, Digitaria sanguinalis
Outline: as §1

giant foxtail [11] = experiment: Test A postemergence; format: in vivo, Setaria faberii
Outline: as §1

morningglory [12] = experiment: Test A postemergence; format: in vivo, Ipomoea spp.
Outline: as §1

pigweed [13] = experiment: Test A postemergence; format: in vivo, Amaranthus retroflexus
Outline: as §1

velvetleaf [14] = experiment: Test A postemergence; format: in vivo, Abutilon theophrasti
Outline: as §1

wheat [15] = experiment: Test A postemergence; format: in vivo, Triticum aestivum
Outline: as §1

corn [16] = experiment: Test A postemergence; format: in vivo, Zea mays
Outline: as §1

rice = experiment: Test B flooded paddy test; format: in vivo, Oryza sativa; conditions: Flood, 250 g ai/ha; 0 to 100 scale where 0 is no effect and 100 is complete control
Outline: (§2)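 Plants at 2-leaf stage; pots flooded to 3 cm above soil and compound applied directly into paddy water, depth held throughout. After 13 to 15 days in greenhouse, visual rating versus controls on 0 (no effect) to 100 (complete control) scale.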

sedge, umbrella = experiment: Test B flooded paddy test; format: in vivo, Cyperus difformis; conditions: Flood, 250 g ai/ha; 0 to 100 scale where 0 is no effect and 100 is complete control
Outline: as §2

Heteranthera limosa = experiment: Test B flooded paddy test; format: in vivo; conditions: Flood, 250 g ai/ha; 0 to 100 scale where 0 is no effect and 100 is complete control
Outline: as §2

barnyardgrass [17] = experiment: Test B flooded paddy test; format: in vivo, Echinochloa crus-galli; conditions: Flood, 250 g ai/ha; 0 to 100 scale where 0 is no effect and 100 is complete control
Outline: as §2

[18] = 500 g ai/ha, 0 to 100 scale where 0 is no effect and 100 is complete control
[19] = 125 g ai/ha, 0 to 100 scale where 0 is no effect and 100 is complete control
[20] = 1000 g ai/ha, 0 to 100 scale, 0 no effect, 100 complete control, approx. 10 days
[21] = 1000 g ai/ha, 0 to 100 scale, 0 no effect, 100 complete control
[22] = 500 g ai/ha, 0 to 100 scale, 0 no effect, 100 complete control, approx. 10 days
[23] = 500 g ai/ha, 0 to 100 scale, 0 no effect, 100 complete control

Q: Which “Barnyardgrass plant response rating (0 to 100 scale, 0 is no effect, 100 is complete control)” value (barnyardgrass [1]; 125 g ai/ha) does the source give for `O=Cc1cccc(Oc2ncc(Br)cn2)c1-n1cc(Cl)cn1` [Compound 206] here?
A: 0

Q: What about the “Barnyardgrass plant response rating” value (barnyardgrass [1]; [18]) of the same compound?
A: 0

Q: What about the “Crabgrass, Large plant response rating (0 to 100 scale)” value (large (Lg) crabgrass [2]; 125 g ai/ha) of the same compound?
A: 0

Q: And the “Crabgrass, Large plant response rating” value (large (Lg) crabgrass [2]; [18])?
A: 0

Q: What about the “Foxtail, Giant plant response rating (0 to 100 scale)” value (giant foxtail [3]; 125 g ai/ha) of the same compound?
A: 0

Q: What about the “Foxtail, Giant plant response rating” value (giant foxtail [3]; [18]) of the same compound?
A: 0

Q: And the “Morningglory plant response rating (0 to 100 scale)” value (morningglory [4]; 125 g ai/ha)?
A: 0

Q: And the “Morningglory plant response rating” value (morningglory [4]; [18])?
A: 0

Q: And the “Pigweed plant response rating (0 to 100 scale)” value (pigweed [5]; 125 g ai/ha)?
A: 0

Q: And the “Pigweed plant response rating” value (pigweed [5]; [18])?
A: 50

Q: And the “Velvetleaf plant response rating (0 to 100 scale)” value (velvetleaf [6]; 125 g ai/ha)?
A: 0

Q: What about the “Velvetleaf plant response rating” value (velvetleaf [6]; [18]) of the same compound?
A: 0

Q: What about the “Wheat plant response rating (0 to 100 scale)” value (wheat [7]; 125 g ai/ha) of the same compound?
A: 0

Q: And the “Wheat plant response rating” value (wheat [7]; [18])?
A: 0

Q: And the “Corn plant response rating (0 to 100 scale)” value (corn [8]; 125 g ai/ha)?
A: 0

Q: And the “Corn plant response rating” value (corn [8]; [18])?
A: 0

Q: What about the “Barnyardgrass plant response rating” value (barnyardgrass [9]; [19]) of the same compound?
A: 0

Q: And the “Plant response rating, Barnyardgrass” value (barnyardgrass [9]; [18])?
A: 0

Q: And the “Crabgrass, Large plant response rating” value (large (Lg) crabgrass [10]; [19])?
A: 0

Q: What about the “Plant response rating, Crabgrass, Large” value (large (Lg) crabgrass [10]; [18]) of the same compound?
A: 0

Q: What about the “Foxtail, Giant plant response rating” value (giant foxtail [11]; [19]) of the same compound?
A: 0

Q: And the “Plant response rating, Foxtail, Giant” value (giant foxtail [11]; [18])?
A: 0

Q: What about the “Morningglory plant response rating” value (morningglory [12]; [19]) of the same compound?
A: 0

Q: What about the “Plant response rating, Morningglory” value (morningglory [12]; [18]) of the same compound?
A: 0

Q: What about the “Pigweed plant response rating” value (pigweed [13]; [19]) of the same compound?
A: 0

Q: And the “Plant response rating, Pigweed” value (pigweed [13]; [18])?
A: 0

Q: What about the “Velvetleaf plant response rating” value (velvetleaf [14]; [19]) of the same compound?
A: 10

Q: What about the “Plant response rating, Velvetleaf” value (velvetleaf [14]; [18]) of the same compound?
A: 20

Q: And the “Wheat plant response rating” value (wheat [15]; [19])?
A: 0

Q: What about the “Plant response rating, Wheat” value (wheat [15]; [18]) of the same compound?
A: 0

Q: And the “Corn plant response rating” value (corn [16]; [19])?
A: 0

Q: And the “Plant response rating, Corn” value (corn [16]; [18])?
A: 0

Q: And the “Plant response rating, Rice” value (rice)?
A: 0

Q: And the “Plant response rating, Sedge, Umbrella” value (sedge, umbrella)?
A: 0

Q: What about the “Plant response rating, Ducksalad” value (Heteranthera limosa) of the same compound?
A: 0

Q: And the “Plant response rating, Barnyardgrass” value (barnyardgrass [17])?
A: 0

Q: `CC(=O)c1cn(-c2c(Br)cccc2Oc2ncc(Cl)cn2)nn1` [Compound 280] was tested. Which “Barnyardgrass plant response rating” value (barnyardgrass [1]; [20]) did it give?
A: 100

Q: What about the “Crabgrass, Large plant response rating” value (large (Lg) crabgrass [2]; [20]) of the same compound?
A: 100

Q: And the “Foxtail, Giant plant response rating” value (giant foxtail [3]; [20])?
A: 100

Q: What about the “Morningglory plant response rating” value (morningglory [4]; [20]) of the same compound?
A: 0

Q: And the “Pigweed plant response rating” value (pigweed [5]; [20])?
A: 100

Q: And the “Velvetleaf plant response rating” value (velvetleaf [6]; [20])?
A: 100

Q: And the “Wheat plant response rating” value (wheat [7]; [20])?
A: 40

Q: What about the “Corn plant response rating” value (corn [8]; [20]) of the same compound?
A: 50

Q: And the “Plant response rating, Barnyardgrass” value (barnyardgrass [9]; [21])?
A: 90

Q: What about the “Plant response rating, Crabgrass, Large” value (large (Lg) crabgrass [10]; [21]) of the same compound?
A: 90

Q: And the “Plant response rating, Foxtail, Giant” value (giant foxtail [11]; [21])?
A: 90

Q: And the “Plant response rating, Morningglory” value (morningglory [12]; [21])?
A: 30

Q: What about the “Plant response rating, Pigweed” value (pigweed [13]; [21]) of the same compound?
A: 100

Q: And the “Plant response rating, Velvetleaf” value (velvetleaf [14]; [21])?
A: 90

Q: What about the “Plant response rating, Wheat” value (wheat [15]; [21]) of the same compound?
A: 40

Q: What about the “Plant response rating, Corn” value (corn [16]; [21]) of the same compound?
A: 50

Q: And the “Plant response rating, Rice” value (rice)?
A: 10

Q: What about the “Plant response rating, Sedge, Umbrella” value (sedge, umbrella) of the same compound?
A: 10

Q: And the “Plant response rating, Ducksalad” value (Heteranthera limosa)?
A: 30

Q: What about the “Plant response rating, Barnyardgrass” value (barnyardgrass [17]) of the same compound?
A: 10

Q: `CC=Cc1cnn(-c2ccccc2Oc2ncc(Cl)cn2)c1` [Compound 27] was tested. Which “Plant response rating, Barnyardgrass” value (barnyardgrass [1]; [19]) did it give?
A: 0

Q: What about the “Barnyardgrass plant response rating” value (barnyardgrass [1]; [22]) of the same compound?
A: 20

Q: What about the “Plant response rating, Crabgrass, Large” value (large (Lg) crabgrass [2]; [19]) of the same compound?
A: 0

Q: What about the “Crabgrass, Large plant response rating” value (large (Lg) crabgrass [2]; [22]) of the same compound?
A: 50

Q: And the “Plant response rating, Foxtail, Giant” value (giant foxtail [3]; [19])?
A: 0

Q: And the “Foxtail, Giant plant response rating” value (giant foxtail [3]; [22])?
A: 40

Q: What about the “Plant response rating, Morningglory” value (morningglory [4]; [19]) of the same compound?
A: 0

Q: And the “Morningglory plant response rating” value (morningglory [4]; [22])?
A: 0

Q: What about the “Plant response rating, Pigweed” value (pigweed [5]; [19]) of the same compound?
A: 10

Q: What about the “Pigweed plant response rating” value (pigweed [5]; [22]) of the same compound?
A: 20

Q: And the “Plant response rating, Velvetleaf” value (velvetleaf [6]; [19])?
A: 0

Q: What about the “Velvetleaf plant response rating” value (velvetleaf [6]; [22]) of the same compound?
A: 10

Q: And the “Plant response rating, Wheat” value (wheat [7]; [19])?
A: 0

Q: And the “Wheat plant response rating” value (wheat [7]; [22])?
A: 0

Q: And the “Plant response rating, Corn” value (corn [8]; [19])?
A: 0

Q: What about the “Corn plant response rating” value (corn [8]; [22]) of the same compound?
A: 0

Q: What about the “Plant response rating, Barnyardgrass” value (barnyardgrass [9]; [19]) of the same compound?
A: 0

Q: And the “Plant response rating, Barnyardgrass” value (barnyardgrass [9]; [23])?
A: 10

Q: And the “Plant response rating, Crabgrass, Large” value (large (Lg) crabgrass [10]; [19])?
A: 20

Q: What about the “Plant response rating, Crabgrass, Large” value (large (Lg) crabgrass [10]; [23]) of the same compound?
A: 60

Q: And the “Plant response rating, Foxtail, Giant” value (giant foxtail [11]; [19])?
A: 0

Q: And the “Plant response rating, Foxtail, Giant” value (giant foxtail [11]; [23])?
A: 30

Q: What about the “Plant response rating, Morningglory” value (morningglory [12]; [19]) of the same compound?
A: 10

Q: What about the “Plant response rating, Morningglory” value (morningglory [12]; [23]) of the same compound?
A: 50

Q: What about the “Plant response rating, Pigweed” value (pigweed [13]; [19]) of the same compound?
A: 60

Q: What about the “Plant response rating, Pigweed” value (pigweed [13]; [23]) of the same compound?
A: 70

Q: And the “Plant response rating, Velvetleaf” value (velvetleaf [14]; [19])?
A: 50

Q: And the “Plant response rating, Velvetleaf” value (velvetleaf [14]; [23])?
A: 70

Q: What about the “Plant response rating, Wheat” value (wheat [15]; [19]) of the same compound?
A: 0

Q: What about the “Plant response rating, Wheat” value (wheat [15]; [23]) of the same compound?
A: 0

Q: And the “Plant response rating, Corn” value (corn [16]; [19])?
A: 0

Q: And the “Plant response rating, Corn” value (corn [16]; [23])?
A: 10

Q: What about the “Plant response rating, Rice” value (rice) of the same compound?
A: 0

Q: What about the “Plant response rating, Sedge, Umbrella” value (sedge, umbrella) of the same compound?
A: 75

Q: And the “Plant response rating, Ducksalad” value (Heteranthera limosa)?
A: 75

Q: And the “Plant response rating, Barnyardgrass” value (barnyardgrass [17])?
A: 0
